Patent publication US20100063102A1, “TREATMENT OF FAECAL INCONTINENCE” (UROGENE, priority 2007, published 2010)
Entries after “also recorded” stand apart in the source; their conditions may differ.

Tested on: striated anal sphincter
Experiment: Effect on the electromyographic activity of the rabbit striated anal sphincter under bladder irritation (SS-EMG)
Assay type: in vivo
Method: The effect of the HP749 compound was tested on rabbits under conditions of bladder irritation. Female rabbits of the New Zealand race weighing from 2.5 to 3.5 kg were used. The bladder irritation was caused by transcontinuous bladder infusion of 0.5% acetic acid. Under these conditions, the striated anal sphincter electromyography is increased. Throughout the experiment, the animal was placed in the supine position and anaesthetized with 2-3% of halothane. The striated sphincter electromyography (SS-EMG) was carried out using two electrodes (30-gauge needle) placed percutaneously in the striated anal sphincter, approximately 5-10 mm from the anus (laterally). The electric signals were amplified on an ML136 preamplifier (AD Instruments, PanLab, Barcelona, Spain), filtered below 1 Hz and above 5 KHz and presented in a PowerLab window. The striated sphincter electromyography (SS-EMG) was recorded continuously during the cystometry. Cumulative doses of the HP749 compound (0, 1, 3 and 5 mg/kg) were administered through an intravenous canula connected to the ear vein. The medicaments in saline solution were freshly prepared before each experiment and administered in a volume of 1 ml, followed by rinsing with 1 ml of physiological saline solution. The results were expressed by the mean±the standard error of the […]. The electromyographic values obtained under conditions of irritation after administration of a placebo were used as control values. The effects of the HP749 compound were analysed and compared with the control values by means of a Wilcoxon test. The results obtained were considered to be significant when p<0.05.

Structure (SMILES): CCCN(c1ccncc1)n1ccc2ccccc21 [HP749, N-propyl-N-(4-pyridinyl)-1H-indol-1-amine]
- mean increase in the EMG activity compared with the control value (anaesthetized female New Zealand rabbits, bladder irritation with 0.5% acetic acid, cumulative i.v. doses 1, 3 and 5 mg/kg, control = placebo, p<0.01): 155%
- effect on the electromyographic (EMG) activity of the striated anal sphincter (at all the doses (1, 3 and 5 mg/kg i.v.), FIG. 1, Wilcoxon test vs placebo control): significant effect; also recorded: powerful effect
- dose at which the effect on the external anal sphincter appeared to have reached its maximum (rabbits, i.v., lowest dose tested): 1 mg/kg
